Tests used:
[1] = target: 6×HIS-tankyrase1 (1091-1325) (Homo sapiens (Human), UniProt O95271); test: Tankyrase 1 biochemical assay (AlphaLisa, PARsylation); conditions: 400 nM NAD, 60 minutes at RT; read-out: TNKS1 IC50
PARP2 = PARP2 (Homo sapiens (Human), UniProt Q9UGN5); test: PARP2 biochemical assay (BPS kit)
PARP1 = PARP1 (Homo sapiens (Human), UniProt P09874); test: PARP1 biochemical assay (Trevigen kit)
From the text: PARP1 biochemical assay was purchased as a kit from Trevigen (cat.#4676-096-K) and used per manufacturers recommendations.

[2] = system: Axin2 accumulation in SW480 cells; test: Axin2 384 immunofluorescence assay; format: cell-based; conditions: Homo sapiens; SW480 cells, 24 hours; read-out: Axin2 384 IF EC50
[3] = system: total β-catenin in SW480 colorectal cells; test: Total β-catenin MSD 96-well plate assay for SW480 cells; conditions: Homo sapiens, SW480, read-out: SW480-Total beta-catenin (TBC) IC50 IP
[4] = target: 6×HIS-tankyrase 2 (946-1162) (Homo sapiens (Human), UniProt Q9H2K2); test: Tankyrase 2 biochemical assay (AlphaLisa, PARsylation); conditions: 250 nM NAD; read-out: TNKS2 IC50
Sequence of 6×HIS-tankyrase 2 (946-1162) (Q9H2K2 946-1162): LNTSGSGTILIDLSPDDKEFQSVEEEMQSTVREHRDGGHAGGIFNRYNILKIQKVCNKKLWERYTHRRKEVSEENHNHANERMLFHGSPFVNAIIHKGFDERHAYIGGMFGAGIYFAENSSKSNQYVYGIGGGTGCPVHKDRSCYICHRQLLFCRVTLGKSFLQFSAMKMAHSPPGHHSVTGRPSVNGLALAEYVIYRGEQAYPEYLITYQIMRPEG

Sequence of PARP1 (P09874 whole entry): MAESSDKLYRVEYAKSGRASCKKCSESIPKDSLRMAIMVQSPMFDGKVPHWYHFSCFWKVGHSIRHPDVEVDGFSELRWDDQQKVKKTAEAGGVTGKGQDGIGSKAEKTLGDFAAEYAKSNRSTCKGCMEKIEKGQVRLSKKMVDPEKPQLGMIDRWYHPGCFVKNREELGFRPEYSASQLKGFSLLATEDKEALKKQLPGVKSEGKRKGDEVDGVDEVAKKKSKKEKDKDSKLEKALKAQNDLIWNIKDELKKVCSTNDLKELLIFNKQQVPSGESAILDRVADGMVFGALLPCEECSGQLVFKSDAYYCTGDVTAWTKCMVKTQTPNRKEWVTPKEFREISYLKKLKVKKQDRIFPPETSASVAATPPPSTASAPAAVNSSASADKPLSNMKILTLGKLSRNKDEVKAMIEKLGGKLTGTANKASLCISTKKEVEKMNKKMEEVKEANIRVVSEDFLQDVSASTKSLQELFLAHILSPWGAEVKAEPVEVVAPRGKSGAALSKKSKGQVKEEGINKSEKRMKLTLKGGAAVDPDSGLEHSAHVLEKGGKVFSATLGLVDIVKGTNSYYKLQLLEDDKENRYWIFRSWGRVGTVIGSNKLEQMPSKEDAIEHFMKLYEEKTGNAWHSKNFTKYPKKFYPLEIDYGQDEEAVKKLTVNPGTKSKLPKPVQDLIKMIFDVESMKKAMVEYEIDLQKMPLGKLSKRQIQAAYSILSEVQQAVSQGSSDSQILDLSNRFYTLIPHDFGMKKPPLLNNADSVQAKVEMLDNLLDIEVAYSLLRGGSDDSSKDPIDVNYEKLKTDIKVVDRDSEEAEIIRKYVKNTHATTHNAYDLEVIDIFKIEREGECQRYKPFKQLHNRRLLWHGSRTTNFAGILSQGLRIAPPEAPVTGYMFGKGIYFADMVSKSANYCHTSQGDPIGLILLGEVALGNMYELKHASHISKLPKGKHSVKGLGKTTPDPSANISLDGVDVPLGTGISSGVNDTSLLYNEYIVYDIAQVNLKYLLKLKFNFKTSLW
Sequence of PARP2 (Q9UGN5 whole entry): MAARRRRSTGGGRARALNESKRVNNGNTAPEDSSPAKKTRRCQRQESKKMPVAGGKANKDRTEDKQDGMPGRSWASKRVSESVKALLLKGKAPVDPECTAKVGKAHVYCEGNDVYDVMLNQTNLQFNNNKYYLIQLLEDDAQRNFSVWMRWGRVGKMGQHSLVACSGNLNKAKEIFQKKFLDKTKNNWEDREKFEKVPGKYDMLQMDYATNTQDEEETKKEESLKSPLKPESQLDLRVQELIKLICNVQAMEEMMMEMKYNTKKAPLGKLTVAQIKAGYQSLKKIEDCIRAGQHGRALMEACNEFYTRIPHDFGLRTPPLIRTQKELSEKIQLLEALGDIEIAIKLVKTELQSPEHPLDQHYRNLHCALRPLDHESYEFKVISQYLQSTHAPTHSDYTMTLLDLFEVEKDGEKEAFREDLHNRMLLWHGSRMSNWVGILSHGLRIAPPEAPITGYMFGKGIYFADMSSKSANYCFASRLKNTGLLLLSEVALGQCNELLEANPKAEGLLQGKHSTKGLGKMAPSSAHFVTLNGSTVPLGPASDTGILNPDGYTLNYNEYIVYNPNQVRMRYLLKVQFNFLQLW
Sequence of 6×HIS-tankyrase1 (1091-1325) (O95271 1091-1325): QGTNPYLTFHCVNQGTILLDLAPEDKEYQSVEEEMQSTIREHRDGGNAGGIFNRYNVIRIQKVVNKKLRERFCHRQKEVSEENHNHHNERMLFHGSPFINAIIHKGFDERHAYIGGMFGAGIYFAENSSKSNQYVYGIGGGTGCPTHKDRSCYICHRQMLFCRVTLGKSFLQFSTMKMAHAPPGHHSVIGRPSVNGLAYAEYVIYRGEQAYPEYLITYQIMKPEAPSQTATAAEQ

IC50 [1] [nM] | IC50 (PARP2) [nM] | IC50 (PARP1) [nM] | EC50 [2] [nM] | IC50 [3] [nM] | IC50 [4] [nM] | Structure (SMILES)
15.8 | 2420 | 2270 | 287 | 145 | 4.44 | O=C(CCSCc1nc2ccccc2c(=O)[nH]1)N[C@H]1CC[C@H](c2nnc(-c3ccccc3)o2)CC1 [Example 92, 3-(((4-oxo-3,4-dihydro-2-quinazolinyl)methyl)sulfanyl)-N-(trans-4-(5-phenyl-1,3,4-oxadiazol-2-yl)cyclohexyl)propanamide]
8.97 | 363 | 7610 | 2930 | 681 | 3.53 | O=C(CCCc1nc2ccccc2c(=O)[nH]1)N1CCC(n2c(=O)oc3ccccc32)CC1 [Example 44, 2-(4-oxo-4-(4-(2-oxo-1,3-benzoxazol-3(2H)-yl)-1-piperidinyl)butyl)-4(3H)-quinazolinone]
0.783 | 227 | 636 | 239 | 161 | 0.292 | N#Cc1ccc2c(c1)[nH]c(=O)n2C1CCN(C(=O)CCCc2nc3ccccc3c(=O)[nH]2)CC1 [Example 68, 2-oxo-1-(1-(4-(4-oxo-3,4-dihydro-2-quinazolinyl)butanoyl)-4-piperidinyl)-2,3-dihydro-1H-benzimidazole-5-carbonitrile]
1.76 | 284 | 1800 | 193 | 46.5 | 0.401 | O=C(CCCc1nc2ccccc2c(=O)[nH]1)N1CCN(c2n[nH]c3ccccc23)CC1 [Example 55, 2-(4-(4-(1H-indazol-3-yl)-1-piperazinyl)-4-oxobutyl)-4(3H)-quinazolinone]
39.1 | 673 | 3200 | 3630 | 1120 | 17 | Cn1c(=O)n(C2CCN(C(=O)CCCc3nc4ccccc4c(=O)[nH]3)CC2)c2ccccc21 [Example 54, 2-(4-(4-(3-methyl-2-oxo-2,3-dihydro-1H-benzimidazol-1-yl)-1-piperidinyl)-4-oxobutyl)-4(3H)-quinazolinone]
3.93 | 681 | 1280 | 552 | 980 | 1.68 | O=C(CCCc1nc2ccccc2c(=O)[nH]1)N1CCC(n2c(=O)[nH]c3c(F)cccc32)CC1 [Example 67, 2-(4-(4-(4-fluoro-2-oxo-2,3-dihydro-1H-benzimidazol-1-yl)-1-piperidinyl)-4-oxobutyl)-4(3H)-quinazolinone]
407 | 317 | 1760 | 686 | 2560 | 451 | O=C(CCCc1nc2ccccc2c(=O)[nH]1)N1CCN(c2nsc3ccccc23)CC1 [Example 69, 2-(4-(4-(1,2-benzisothiazol-3-yl)-1-piperazinyl)-4-oxobutyl)-4(3H)-quinazolinone]
11 | 414 | 3050 | 260 | 41.7 | 2.54 | O=C(CCCc1nc2ccccc2c(=O)[nH]1)N1CCC(c2nnc(-c3cccc(Cl)c3)o2)CC1 [Example 3, 2-(4-(4-(5-(3-chlorophenyl)-1,3,4-oxadiazol-2-yl)-1-piperidinyl)-4-oxobutyl)-4(3H)-quinazolinone]
656 | 455 | 3300 | 601 | 152 | 6.31 | Cc1ccc(-c2nnc(C3CCN(C(=O)CCCc4nc5ccccc5c(=O)[nH]4)CC3)o2)cc1 [Example 23, 2-(4-oxo-4-(4-(5-(p-tolyl)-1,3,4-oxadiazol-2-yl)piperidin-1-yl)butyl)quinazolin-4(3H)-one]
5.15 | 1350 | 1980 | 417 | 111 | 0.596 | O=C(CCCc1nc2ccccc2c(=O)[nH]1)N1CCC(c2n[nH]c3ccccc23)CC1 [Example 48, 2-(4-(4-(1H-indazol-3-yl)-1-piperidinyl)-4-oxobutyl)-4(3H)-quinazolinone trifluoroacetic acid]
646 | 916 | 3790 | 6390 | 2190 | 152 | O=C(CCCc1nc2ccccc2c(=O)[nH]1)N1CCC(c2nnc(COc3ccc(Cl)cc3)o2)CC1 [Example 17, 2-(4-(4-(5-((4-chlorophenoxy)methyl)-1,3,4-oxadiazol-2-yl)-1-piperidinyl)-4-oxobutyl)-4(3H)-quinazolinone]
31.4 | 345 | 1510 | 2680 | 726 | 12.5 | O=C(CCSc1nc2ccccc2c(=O)[nH]1)N1CCC(c2nnc(-c3ccccc3)o2)CC1 [Example 83, 2-((3-oxo-3-(4-(5-phenyl-1,3,4-oxadiazol-2-yl)piperidin-1-yl)propyl)thio)quinazolin-4(3H)-one]
54.4 | 1120 | 4470 | 732 | 760 | 20.9 | O=C(CCCc1nc2ccccc2c(=O)[nH]1)N1CCC(c2nnc(-c3ccccc3F)o2)CC1 [Example 18, 2-(4-(4-(5-(2-fluorophenyl)-1,3,4-oxadiazol-2-yl)-1-piperidinyl)-4-oxobutyl)-4(3H)-quinazolinone]
0.524 | 470 | > 85000 | 59.7 | 14.1 | 0.227 | O=C(CCc1nc2ccccc2c(=O)[nH]1)N[C@H]1CC[C@H](n2c(=O)[nH]c3cc(Cl)ccc32)CC1 [Example 85, N-((1r,4r)-4-(5-chloro-2-oxo-2,3-dihydro-1H-benzo[d]imidazol-1-yl)cyclohexyl)-3-(4-oxo-3,4-dihydroquinazolin-2-yl)propanamide]
1.3 | 1020 | 3830 | 94.7 | 25.2 | 0.193 | O=C(CCCc1nc2ccccc2c(=O)[nH]1)N1CCC(n2c(=O)[nH]c3cc(C(F)(F)F)ccc32)CC1 [Example 52, 2-(4-oxo-4-(4-(2-oxo-5-(trifluoromethyl)-2,3-dihydro-1H-benzimidazol-1-yl)-1-piperidinyl)butyl)-4(3H)-quinazolinone trifluoroacetic acid]
2.33 | 802 | 586 | 270 | 211 | 0.653 | N#Cc1cc(O[C@H]2CC[C@H](NC(=O)CCCc3nc4ccccc4c(=O)[nH]3)CC2)ccc1Cl [Example 63, N-(trans-4-(4-chloro-3-cyanophenoxy)cyclohexyl)-4-(4-oxo-3,4-dihydro-2-quinazolinyl)butanamide]
17.1 | 1450 | 2030 | 242 | 154 | 4.89 | N#Cc1ccc(-c2nnc(C3CCN(C(=O)CCCc4nc5ccccc5c(=O)[nH]4)CC3)o2)cc1 [Example 21, 4-(5-(1-(4-(4-oxo-3,4-dihydroquinazolin-2-yl)butanoyl)piperidin-4-yl)-1,3,4-oxadiazol-2-yl)benzonitrile]
0.469 | 1150 | 1050 | 30.9 | 24.8 | 0.237 | O=C(CCCc1nc2ccccc2c(=O)[nH]1)N[C@H]1CC[C@H](c2nnc(-c3cccc(F)c3)o2)CC1 [Example 31, N-(trans-4-(5-(3-fluorophenyl)-1,3,4-oxadiazol-2-yl)cyclohexyl)-4-(4-oxo-3,4-dihydro-2-quinazolinyl)butanamide]
2.85 | 292 | 2550 | 192 | 42.3 | 0.614 | O=C(CCCc1nc2ccccc2c(=O)[nH]1)N[C@H]1CC[C@H](Oc2ccc(Cl)cc2)CC1 [Example 79, N-(trans-4-(4-chlorophenoxy)cyclohexyl)-4-(4-oxo-3,4-dihydro-2-quinazolinyl)butanamide]
0.118 | 1650 | > 85000 | 38.1 | 55.4 | 0.458 | O=C(CSc1nc2ccccc2c(=O)[nH]1)N[C@H]1CC[C@H](n2c(=O)[nH]c3ccc(Cl)cc32)CC1 [Example 102, N-((1r,4r)-4-(6-chloro-2-oxo-2,3-dihydro-1H-benzo[d]imidazol-1-yl)cyclohexyl)-2-((4-oxo-3,4-dihydroquinazolin-2-yl)thio)acetamide]
4.37 | 1820 | 1710 | 601 | 119 | 0.601 | O=C(CCCc1nc2ccccc2c(=O)[nH]1)N[C@H]1CC[C@H](Oc2ccc(F)cc2)CC1 [Example 77, N-(trans-4-(4-fluorophenoxy)cyclohexyl)-4-(4-oxo-3,4-dihydro-2-quinazolinyl)butanamide]
0.167 | 319 | 2500 | 10.7 | 3.79 | 3.13 | N#Cc1ccc(O[C@H]2CC[C@H](NC(=O)CCSc3nc4c(c(=O)[nH]3)CCCC4)CC2)cc1 [Example 116, N-(trans-4-(4-cyanophenoxy)cyclohexyl)-3-((4-oxo-3,4,5,6,7,8-hexahydroquinazolin-2-yl)thio)propanamide]

Reference: patent US9505749B2, “Quinazolinone compounds and derivatives thereof” (AMGEN INC., priority 2012, dated 2016)
